Experiment in all cases: relative viability (nuclei count vs DMSO), 5 days (fraction); higher = more cells survive
Compound in test [1]: N#CC[C@H](C1CCCC1)n1cc(-c2ncnc3[nH]ccc23)cn1 [Ruxolitinib] + CC(=O)c1c(C)c2cnc(Nc3ccc(N4CCNCC4)cn3)nc2n(C2CCCC2)c1=O [Palbociclib] (partner 0.5 µM)
The gist of the method:
(§1)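 A single step with final 0.05% Triton X-100, 1% formaldehyde and 1 ug/ml Hoechst fixed the cells and stained nuclei 5 days after treatment. Lung cancer cell lines in 1536-well plates had been treated by pin tool the day after seeding with one drug alone or a fixed anchor-drug dose plus five library-drug doses (not always all listed) in √10 steps, and nuclei were counted on 4× images. Relative viability is the ratio of nuclei in treated wells to nuclei in vehicle wells, taken as the median of duplicate plates.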

Compound in the test “Vismodegib + Phenformin”: CS(=O)(=O)c1ccc(C(=O)Nc2ccc(Cl)c(-c3ccccn3)c2)c(Cl)c1 [Vismodegib] + N=C(N)NC(=N)NCCc1ccccc1 [Phenformin] (partner 250 µM)
The gist of the method: as §1

Compound in the test “Ruxolitinib + Olaparib”: N#CC[C@H](C1CCCC1)n1cc(-c2ncnc3[nH]ccc23)cn1 [Ruxolitinib] + O=C(c1cc(Cc2n[nH]c(=O)c3ccccc23)ccc1F)N1CCN(C(=O)C2CC2)CC1 [Olaparib] (partner 8 µM)
The gist of the method: as §1

Compound in the test “VE-821 + Olaparib”: CS(=O)(=O)c1ccc(-c2cnc(N)c(C(=O)Nc3ccccc3)n2)cc1 [VE-821] + O=C(c1cc(Cc2n[nH]c(=O)c3ccccc23)ccc1F)N1CCN(C(=O)C2CC2)CC1 [Olaparib] (partner 8 µM)
The gist of the method: as §1

For UMC-11, the relative viability in test [1] (first compound 0.08 µM) stood at 0.345; in test [1] (first compound 0.253 µM), 0.399; in test [1] (first compound 0.8 µM) it was 0.329; in test [1] (first compound 2.53 µM), 0.366; in test [1] (first compound 8 µM), 0.362; with Vismodegib + Phenformin (first compound 0.08 µM) it was 0.286. Besides, the relative viability in the test with Vismodegib + Phenformin (first compound 0.253 µM) was found to be 0.311; in the test with Vismodegib + Phenformin (first compound 0.8 µM), 0.301; with Vismodegib + Phenformin (first compound 2.53 µM), 0.283; with Vismodegib + Phenformin (first compound 8 µM), 0.284; in the test with Ruxolitinib + Olaparib (first compound 0.08 µM), 0.37; in the test with Ruxolitinib + Olaparib (first compound 0.253 µM), 0.894. The relative viability with Ruxolitinib + Olaparib (first compound 0.8 µM) was 1.03; with Ruxolitinib + Olaparib (first compound 2.53 µM) it was 0.366; in the test with Ruxolitinib + Olaparib (first compound 8 µM), 0.315; with VE-821 + Olaparib (first compound 0.08 µM), 0.82; with VE-821 + Olaparib (first compound 0.253 µM), 0.429; in the test with VE-821 + Olaparib (first compound 0.8 µM) it was 0.374. Also, the results for the relative viability with VE-821 + Olaparib (first compound 2.53 µM) and with VE-821 + Olaparib (first compound 8 µM) were 0.274 and 0.208, respectively.

The record behind these values is the supplement of paper PMC10307832.
